Test results published in PubChem BioAssay (NCI).
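48-hour exposure; five concentrations; linearly interpolated endpoints. The concentration for 50% growth inhibition is given as GI50. Definition used: TGI = concentration required for complete inhibition of growth.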

Key:
Experiment in all cases: DTP human tumour cell line panel, 48 h
COLO 205 colon = tested on: COLO 205 colon
U251 CNS = tested on: U251 CNS
SF-295 CNS = tested on: SF-295 CNS
DU-145 prostate = tested on: DU-145 prostate
SK-MEL-2 melanoma = tested on: SK-MEL-2 melanoma
MCF7 breast = tested on: MCF7 breast
UO-31 renal = tested on: UO-31 renal
NCI-H23 lung = tested on: NCI-H23 lung
HOP-62 NSCLC = tested on: HOP-62 NSCLC
SNB-75 CNS = tested on: SNB-75 CNS
RPMI-8226 leukemia = tested on: RPMI-8226 leukemia
ACHN renal = tested on: ACHN renal
SF-539 CNS = tested on: SF-539 CNS
BT-549 breast = tested on: BT-549 breast
A498 renal = tested on: A498 renal
SW-620 colon = tested on: SW-620 colon
786-0 renal = tested on: 786-0 renal
SK-MEL-5 melanoma = tested on: SK-MEL-5 melanoma
SK-MEL-28 melanoma = tested on: SK-MEL-28 melanoma
TK-10 renal = tested on: TK-10 renal
HCT-116 colon = tested on: HCT-116 colon
M14 melanoma = tested on: M14 melanoma
UACC-62 melanoma = tested on: UACC-62 melanoma
HT29 colon = tested on: HT29 colon
SN12C renal = tested on: SN12C renal
CAKI-1 renal = tested on: CAKI-1 renal
NCI-H522 lung = tested on: NCI-H522 lung
RXF 393 renal = tested on: RXF 393 renal
NCI-H226 lung = tested on: NCI-H226 lung
SF-268 CNS = tested on: SF-268 CNS
HOP-92 NSCLC = tested on: HOP-92 NSCLC
IGROV1 ovarian = tested on: IGROV1 ovarian
SR leukemia = tested on: SR leukemia
K-562 leukemia = tested on: K-562 leukemia
HCC-2998 colon = tested on: HCC-2998 colon
HS 578T breast = tested on: HS 578T breast
HCT-15 colon = tested on: HCT-15 colon
T-47D breast = tested on: T-47D breast
HL-60(TB) leukemia = tested on: HL-60(TB) leukemia
MDA-MB-231 breast = tested on: MDA-MB-231 breast
PC-3 prostate = tested on: PC-3 prostate
OVCAR-5 ovarian = tested on: OVCAR-5 ovarian
NCI/ADR-RES ovarian = tested on: NCI/ADR-RES ovarian
MDA-MB-435 = tested on: MDA-MB-435
OVCAR-4 ovarian = tested on: OVCAR-4 ovarian
NCI-H460 lung = tested on: NCI-H460 lung
SK-OV-3 ovarian = tested on: SK-OV-3 ovarian
OVCAR-3 ovarian = tested on: OVCAR-3 ovarian
EKVX NSCLC = tested on: EKVX NSCLC
KM12 colon = tested on: KM12 colon
SNB-19 CNS = tested on: SNB-19 CNS
CCRF-CEM leukemia = tested on: CCRF-CEM leukemia
MDA-MB-468 breast = tested on: MDA-MB-468 breast
OVCAR-8 ovarian = tested on: OVCAR-8 ovarian
MALME-3M melanoma = tested on: MALME-3M melanoma
MOLT-4 leukemia = tested on: MOLT-4 leukemia
LOX IMVI melanoma = tested on: LOX IMVI melanoma
A549 NSCLC = tested on: A549 NSCLC
UACC-257 melanoma = tested on: UACC-257 melanoma

Work on COc1cc2c3c(n(CCCn4ccnc4)c(=O)c2cc1OC)-c1nc2c(cc1C3=O)OCO2 yielded a GI50 (COLO 205 colon) of 12.6 µM, a TGI (COLO 205 colon) greater than 100 µM and a GI50 (U251 CNS) of 0.0621 µM. The TGI (U251 CNS) was greater than 100 µM, the GI50 (SF-295 CNS) was 0.0351 µM and the TGI (SF-295 CNS) was 12.8 µM. It also gave a GI50 (DU-145 prostate) of 0.0616 µM, a TGI (DU-145 prostate) greater than 100 µM and a GI50 (SK-MEL-2 melanoma) greater than 100 µM. The TGI (SK-MEL-2 melanoma) was greater than 100 µM, the GI50 (MCF7 breast) was 0.0247 µM and the TGI (MCF7 breast) was 16.3 µM. The GI50 (UO-31 renal) was 0.197 µM, the TGI (UO-31 renal) was greater than 100 µM and the GI50 (NCI-H23 lung) was 0.0442 µM. For the same compound, the TGI (NCI-H23 lung) was 11.3 µM, the GI50 (HOP-62 NSCLC) was 0.0339 µM and the TGI (HOP-62 NSCLC) was greater than 100 µM. For the same compound, the GI50 (SNB-75 CNS) was 0.03 µM, the TGI (SNB-75 CNS) was greater than 100 µM and the GI50 (RPMI-8226 leukemia) was 0.852 µM. The TGI (RPMI-8226 leukemia) was greater than 100 µM, the GI50 (ACHN renal) was 0.0389 µM and the GI50 (SF-539 CNS) was 0.0363 µM. For the same compound, the TGI (SF-539 CNS) was 0.525 µM, the GI50 (BT-549 breast) was 0.356 µM and the TGI (BT-549 breast) was 26.3 µM. It also gave a GI50 (A498 renal) greater than 100 µM, a TGI (A498 renal) greater than 100 µM and a GI50 (SW-620 colon) of 0.207 µM. The TGI (SW-620 colon) was greater than 100 µM, the GI50 (786-0 renal) was 0.105 µM and the GI50 (SK-MEL-5 melanoma) was 0.07 µM. It also gave a TGI (SK-MEL-5 melanoma) of 4.63 µM, a GI50 (SK-MEL-28 melanoma) greater than 100 µM and a TGI (SK-MEL-28 melanoma) greater than 100 µM. It also gave a GI50 (TK-10 renal) greater than 100 µM, a TGI (TK-10 renal) greater than 100 µM and a GI50 (HCT-116 colon) of 0.169 µM. The TGI (HCT-116 colon) was greater than 100 µM, the GI50 (M14 melanoma) was 0.0554 µM and the TGI (M14 melanoma) was greater than 69.3 µM. For the same compound, the GI50 (UACC-62 melanoma) was 0.0359 µM, the TGI (UACC-62 melanoma) was greater than 100 µM and the GI50 (HT29 colon) was 0.637 µM. It also gave a TGI (HT29 colon) greater than 100 µM, a GI50 (SN12C renal) of 0.134 µM and a TGI (SN12C renal) greater than 100 µM. It also gave a GI50 (CAKI-1 renal) of 0.04 µM, a TGI (CAKI-1 renal) greater than 100 µM and a GI50 (NCI-H522 lung) of 1.07 µM. For the same compound, the TGI (NCI-H522 lung) was 37.6 µM, the GI50 (RXF 393 renal) was 0.335 µM and the TGI (RXF 393 renal) was greater than 100 µM. The GI50 (NCI-H226 lung) was 0.124 µM, the TGI (NCI-H226 lung) was greater than 100 µM and the GI50 (SF-268 CNS) was 0.0769 µM. The TGI (SF-268 CNS) was greater than 100 µM, the GI50 (HOP-92 NSCLC) was greater than 47.1 µM and the TGI (HOP-92 NSCLC) was greater than 100 µM. It also gave a GI50 (IGROV1 ovarian) greater than 52 µM, a TGI (IGROV1 ovarian) greater than 100 µM and a GI50 (SR leukemia) of 0.0274 µM. It also gave a TGI (SR leukemia) of 24.5 µM, a GI50 (K-562 leukemia) of 0.0742 µM and a TGI (K-562 leukemia) greater than 100 µM. For the same compound, the GI50 (HCC-2998 colon) was 19.4 µM, the TGI (HCC-2998 colon) was greater than 100 µM and the GI50 (HS 578T breast) was greater than 100 µM. It also gave a TGI (HS 578T breast) greater than 100 µM, a GI50 (HCT-15 colon) of 13.1 µM and a TGI (HCT-15 colon) greater than 100 µM. The GI50 (T-47D breast) was 0.0376 µM, the TGI (T-47D breast) was greater than 100 µM and the GI50 (HL-60(TB) leukemia) was 0.0485 µM. For the same compound, the TGI (HL-60(TB) leukemia) was greater than 100 µM, the GI50 (MDA-MB-231 breast) was 45.1 µM and the TGI (MDA-MB-231 breast) was greater than 100 µM. The GI50 (PC-3 prostate) was 32.2 µM, the TGI (PC-3 prostate) was greater than 100 µM and the GI50 (OVCAR-5 ovarian) was greater than 36.7 µM. The TGI (OVCAR-5 ovarian) was greater than 100 µM, the GI50 (NCI/ADR-RES ovarian) was greater than 100 µM and the TGI (NCI/ADR-RES ovarian) was greater than 100 µM. The GI50 (MDA-MB-435) was 4.7 µM, the TGI (MDA-MB-435) was greater than 100 µM and the GI50 (OVCAR-4 ovarian) was greater than 100 µM. It also gave a TGI (OVCAR-4 ovarian) greater than 100 µM, a GI50 (NCI-H460 lung) of 0.0325 µM and a TGI (NCI-H460 lung) greater than 36.4 µM. For the same compound, the GI50 (SK-OV-3 ovarian) was 0.0459 µM, the TGI (SK-OV-3 ovarian) was greater than 100 µM and the GI50 (OVCAR-3 ovarian) was 38.5 µM. The TGI (OVCAR-3 ovarian) was greater than 100 µM, the GI50 (EKVX NSCLC) was greater than 66.4 µM and the TGI (EKVX NSCLC) was greater than 100 µM. It also gave a GI50 (KM12 colon) greater than 100 µM, a TGI (KM12 colon) greater than 100 µM and a GI50 (SNB-19 CNS) of 0.0685 µM. The TGI (SNB-19 CNS) was greater than 100 µM, the GI50 (CCRF-CEM leukemia) was 0.028 µM and the GI50 (MDA-MB-468 breast) was 0.028 µM. It also gave a TGI (MDA-MB-468 breast) of 0.115 µM, a GI50 (OVCAR-8 ovarian) of 0.803 µM and a TGI (OVCAR-8 ovarian) greater than 100 µM. The GI50 (MALME-3M melanoma) was 13.1 µM, the TGI (MALME-3M melanoma) was greater than 100 µM and the GI50 (MOLT-4 leukemia) was 0.0356 µM. The TGI (MOLT-4 leukemia) was greater than 100 µM, the GI50 (LOX IMVI melanoma) was 0.0448 µM and the TGI (LOX IMVI melanoma) was 5.83 µM. The GI50 (A549 NSCLC) was 3.31 µM, the TGI (A549 NSCLC) was greater than 100 µM and the TGI (UACC-257 melanoma) was greater than 100 µM.
